Experimental data taken from patent publication US10881699B2, “Cosmetic compositions” (Mary Kay Inc., priority 2014, dated 2021).

Assays:
MMP9 = molecular target: T1, MMP9 (Homo sapiens, UniProt P14780); assay: Matrix metalloproteinase enzyme activity assay, MMP9; format: biochemical; conditions: thiopeptide chromogenic substrate
T1 construct: purchased BioMol International AK-410
From the text: (§1) Matrix Metalloproteinase Enzyme Activity (MMP3; MMP9) Assay: An in vitro matrix metalloprotease (MMP) inhibition assay. MMPs are extracellular proteases that play a role in many normal and disease states by virtue of their broad substrate specificity. MMP3 substrates include collagens, fibronectins, and laminin; while MMP9 substrates include collagen VII, fibronectins and laminin. Using Colorimetric Drug Discovery kits from BioMol International for MMP3 (AK-400) and MMP-9 (AK-410), this assay is designed to measure protease activity of MMPs using a thiopeptide as a chromogenic substrate (Ac-PLG42-mercapto-4-methyl-pentanoylRG-OC2H5)5,6. The MMP cleavage site peptide bond is replaced by a thioester bond in the thiopeptide. Hydrolysis of this bond by an MMP produces a sulfhydryl group, which reacts with DTNB [5,5′-dithiobis(2-nitrobenzoic acid), Ellman's reagent] to form 2-nitro-5-thiobenzoic acid, which can be detected by its absorbance at 412 nm (c=13,600 M-1 cm-1 at pH 6.0 and above 7). The active ingredients, any one of the combination of ingredients, or compositions having said combinations disclosed in the specification can be assayed.

MMP3 = molecular target: T2, MMP3 (Homo sapiens, UniProt P08254); assay: Matrix metalloproteinase enzyme activity assay, MMP3; format: biochemical; conditions: thiopeptide chromogenic substrate
T2 construct: purchased BioMol International AK-400
T2 sequence (P08254 100-272 limits assumed): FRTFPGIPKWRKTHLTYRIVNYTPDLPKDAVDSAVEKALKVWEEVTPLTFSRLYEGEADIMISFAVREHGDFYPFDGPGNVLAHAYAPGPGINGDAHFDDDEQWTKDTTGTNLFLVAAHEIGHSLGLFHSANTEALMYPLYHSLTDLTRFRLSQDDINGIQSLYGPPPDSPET
From the text: as §1

[1] = tested on: procollagen peptide production by human epidermal fibroblasts; assay: Collagen stimulation assay, procollagen peptide ELISA; format: cell-based; conditions: treated for 3 days
From the text: Collagen Stimulation Assay:
Collagen is an extracellular matrix protein critical for skin structure. Increased synthesis of collagen helps improve skin firmness and elasticity. This bioassay can be used to examine the effect of any one of the active ingredients, combination of ingredients, or compositions having said combinations disclosed in the specification on the production of procollagen peptide (a precursor to collagen) by human epidermal fibroblasts. The endpoint of this assay is a spectrophotometric measurement that reflects the presence of procollagen peptide and cellular viability. The assay employs the quantitative sandwich enzyme immunoassay technique whereby a monoclonal antibody specific for procollagen peptide was been pre-coated onto a microplate. […] Following a wash to remove any unbound antibody-enzyme reagent, a substrate solution was added to the wells and color develops in proportion to the amount of procollagen peptide bound in the initial step using a microplate reader for detection at 450 nm. The color development was stopped and the intensity of the color was measured. […] Following incubation, cell culture medium was collected and the amount of procollagen peptide secretion quantified using a sandwich enzyme linked immuno-sorbant assay (ELISA) from Takara (#MK101).

T1 sequence (P14780 107-444 limits assumed): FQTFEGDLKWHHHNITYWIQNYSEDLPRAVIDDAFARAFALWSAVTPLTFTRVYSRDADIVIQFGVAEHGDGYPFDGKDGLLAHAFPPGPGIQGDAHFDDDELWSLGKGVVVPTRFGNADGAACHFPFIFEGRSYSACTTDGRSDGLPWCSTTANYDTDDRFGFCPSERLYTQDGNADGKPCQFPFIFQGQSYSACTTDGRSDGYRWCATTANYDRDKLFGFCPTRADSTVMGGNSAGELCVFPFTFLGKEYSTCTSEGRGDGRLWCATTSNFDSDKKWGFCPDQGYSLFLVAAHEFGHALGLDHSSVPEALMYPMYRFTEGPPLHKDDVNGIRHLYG

% MMP9 Activity (MMP9)	% MMP3 Activity (MMP3)	Molecule	% Increase of Type I Collagen Production [1]
11%	38%	CCCCCCCCC(CCCCCC)C(=O)OC[C@H](OC(=O)C(CCCCCC)CCCCCCCC)[C@H]1OC(=O)C(OC(=O)C(CCCCCC)CCCCCCCC)=C1OC(=O)C(CCCCCC)CCCCCCCC (stereo partly shown) [Tetrahexyldecyl ascorbate]	50%
		Trifluoroacetyl tripeptide-2	23%
